Like-named read-outs stand apart in the source and are kept apart here.
What was measured:
[1] = tested on: phosphorylated AKT Ser473 (pAKT S473), mTORC2 activity, PC3 cells; test: mTOR target engagement assay, immunofluorescent cell-based, pAKT S473 readout (mTORC2 activity)
Procedure, shortened: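 After blocking, cells were stained overnight at 4 °C with anti-pAKT S473 antibody, then a fluorescent secondary; inhibition was read as reduced fluorescence intensity.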

[2] = tested on: phosphorylated 4E-BP1 Thr37/46 (p4E-BP1 Thr37/46), mTORC1 activity, PC3 cells; test: mTOR target engagement assay, immunofluorescent cell-based, p4E-BP1 Thr37/46 readout (mTORC1 activity); details: read-out: p4E-BP1 Thr37/46 IC50
Description: The target engagement of mTOR kinase inhibitors was evaluated using an immunofluorescent cell-based assay. In this assay, inhibition of mTORC1 activity was measured by the reduction in the level of phosphorylated 4E-BP1^[…] (p4E-BP1 Thr37/46), and inhibition of mTORC2 activity was measured by the reduction of phosphorylated AKT^Ser473 (pAKT S473).
PC3 cells (prostate tumor cell-line that contains a mutation in the tumor suppressor PTEN, that promotes the phosphorylation and activation of AKT and 4E-BP1) were used in the immunofluorescence assay. PC3 cells were seeded on 384 well plates (black clear bottom, Matrix #4332) overnight. PC3 cells were then treated with 40 μl of the serially diluted test compounds (in 5% fetal bovine serum, F12 medium containing 0.25% DMSO) for ninety minutes at 37° C. The test compound solution was removed, and the plates were washed gently two times with 25 μl phosphate buffered saline (PBS). The cells were fixed by adding 25 μl of Prefer reagent (from Anatech LTD, Cat#414, a glyoxal fixative for fixing proteins within a cell) for sixty minutes followed by three washes with PBS. 5% Goat serum in PBS/0.3% Triton was used to block non-specific binding (60 minutes).
The primary antibodies targeting pAKT S473 and p4E-BP1 Thr37/46 were diluted into PBS/0.3% Triton and incubated with the cells overnight at 4° C. The antibodies targeting pAKTS473 (Cat#4085, Cell signaling) and p4E-BP1 Thr37/46 (Cat#2855, Cell signaling) were used at a 1:100 dilution. Plates were washed three times with PBS/0.1% Tween 20 before adding the secondary antibody at a 1:200 dilution. (goat anti-rabbit containing a fluorescent label, Alexa Fluor 488, Cat#A11008, Invitrogen) in PBS/0.3% Triton for 60 minutes.
Finally, the plates were washed three times with PBS/0.1% Tween 20 and the fluorescent intensity was read using an Analyst HT from Molecular Devices. The fluorescent intensity values from the serially diluted compound treatment group were analyzed using the Xlfit 4 program ([…]) (Formula 205: Y=Bottom+(Top-Bottom)/(1+(IC50/X)^Hillslope) to generate the IC50 value. Where Top is the maximum signal without Compound (+DMSO only) and Bottom represents maximum inhibition. Y is the fluorescence at some compound concentration. The control used to determine the fluorescent intensities for 100% pAKT S473 or 100% phosphorylated p4E-BP1 Thr37/46 were measured from untreated wells that contained only DMSO, instead of test compound.

[3] = Homo sapiens, PC-3, PC3 cells, compound treatment ninety minutes at 37° C.
[4] = Homo sapiens, PC-3, Table 6-1, PC3 cells
[5] = Homo sapiens, PC-3, Table 3-1, PC3 cells

COCc1c([C@@H]2C[C@H]3CC[C@@H](C2)N3C(=O)c2cc(N)n[nH]2)nc2c(-c3ccc(-c4ccccc4)nc3)cnn2c1N [Compound 5.5, (3-amino-1H-pyrazol-5-yl)((1R,3s,5S)-3-(7-amino-6-(methoxymethyl)-3-(6-phenylpyridin-3-yl)pyrazolo[1,5-a]pyrimidin-5-yl)-8-azabicyclo[3.2.1]octan-8-yl)methanone]
IC50 [1, 3]: 100 to 1000 nM
IC50 [2, 3]: 1000 to 10000 nM

CC(=O)c1c([C@@H]2C[C@H]3CC[C@@H](C2)N3C(C)=O)nc2c(-c3ccc(-c4ncc[nH]4)nc3)cnn2c1N [Compound 6.18, 1-(3-(6-(1H-imidazol-2-yl)pyridin-3-yl)-5-((1R,3s,5S)-8-acetyl-8-azabicyclo[3.2.1]octan-3-yl)-7-aminopyrazolo[1,5-a]pyrimidin-6-yl)ethanone]
IC50 [1, 4]: 1 to 100 nM
IC50 [2, 4]: 1 to 100 nM

CS(=O)(=O)c1c([C@@H]2C[C@H]3CC[C@@H](C2)N3C(=O)c2nnc[nH]2)nc2c(-c3ccc(-c4cn[nH]c4)nc3)cnn2c1N [Compound 3.109, ((1R,3s,5S)-3-(3-(6-(1H-pyrazol-4-yl)pyridin-3-yl)-7-amino-6-(methylsulfonyl)pyrazolo[1,5-a]pyrimidin-5-yl)-8-azabicyclo[3.2.1]octan-8-yl)(4H-1,2,4-triazol-3-yl)methanone]
IC50 [1, 5]: 1000 to 10000 nM
IC50 [2, 5]: 1000 to 10000 nM

Cc1csc(-c2ccc(-c3cnn4c(N)c(S(C)(=O)=O)c([C@@H]5C[C@H]6CC[C@@H](C5)N6C(=O)c5cn[nH]n5)nc34)cn2)n1 [Compound 3.189, ((1R,3s,5S)-3-(7-amino-6-(methylsulfonyl)-3-(6-(4-methylthiazol-2-yl)pyridin-3-yl)pyrazolo[1,5-a]pyrimidin-5-yl)-8-azabicyclo[3.2.1]octan-8-yl)(2H-1,2,3-triazol-4-yl)methanone]
IC50 [1, 5]: 1000 to 10000 nM
IC50 [2, 5]: 1000 to 10000 nM

CS(=O)(=O)c1c([C@@H]2C[C@H]3CC[C@@H](C2)N3C(=O)CO)nc2c(-c3ccc(-c4ccc(F)cc4F)nc3)cnn2c1N [Compound 3.128, 1-((1R,3s,5S)-3-(7-amino-3-(6-(2,4-difluorophenyl)pyridin-3-yl)-6-(methylsulfonyl)pyrazolo[1,5-a]pyrimidin-5-yl)-8-azabicyclo[3.2.1]octan-8-yl)-2-hydroxyethanone]
IC50 [1, 5]: 100 to 1000 nM
IC50 [2, 5]: 100 to 1000 nM

CC(=O)c1c([C@@H]2C[C@H]3CC[C@@H](C2)N3C(=O)c2cnn[nH]2)nc2c(-c3ccc(C(C)(C)O)nc3)cnn2c1N [Compound 7.10, 1-(5-((1R,3s,5S)-8-(1H-1,2,3-triazole-5-carbonyl)-8-azabicyclo[3.2.1]octan-3-yl)-7-amino-3-(6-(2-hydroxypropan-2-yl)pyridin-3-yl)pyrazolo[1,5-a]pyrimidin-6-yl)ethanone]
IC50 [1, 3]: 100 to 1000 nM
IC50 [2, 3]: 100 to 1000 nM

COc1ccc(-c2ccc(-c3cnn4c(N)c(S(C)(=O)=O)c([C@@H]5C[C@H]6CC[C@@H](C5)N6C(=O)c5nnc(C)[nH]5)nc34)cn2)cc1 [Compound 3.34, ((1R,3s,5S)-3-(7-amino-3-(6-(4-methoxyphenyl)pyridin-3-yl)-6-(methylsulfonyl)pyrazolo[1,5-a]pyrimidin-5-yl)-8-azabicyclo[3.2.1]octan-8-yl)(5-methyl-4H-1,2,4-triazol-3-yl)methanone]
IC50 [1, 5]: 1 to 100 nM
IC50 [2, 5]: 1 to 100 nM

CS(=O)(=O)c1c([C@@H]2C[C@H]3CC[C@@H](C2)N3C(=O)c2cn[nH]c2)nc2c(-c3ccc(-c4ccccc4)nc3)cnn2c1N [Compound 3.83, ((1R,3s,5S)-3-(7-amino-6-(methylsulfonyl)-3-(6-phenylpyridin-3-yl)pyrazolo[1,5-a]pyrimidin-5-yl)-8-azabicyclo[3.2.1]octan-8-yl)(1H-pyrazol-4-yl)methanone]
IC50 [1, 5]: 1 to 100 nM
IC50 [2, 5]: 1 to 100 nM

CN1CCN(c2nnc(C(=O)N3C4CCC3CC(c3nc5c(-c6ccc(-c7ccccc7)nc6)cnn5c(N)c3C3CC3)C4)[nH]2)CC1 [Compound 8.102, ((1R,3s,5S)-3-(7-amino-6-cyclopropyl-3-(6-phenylpyridin-3-yl)pyrazolo[1,5-a]pyrimidin-5-yl)-8-azabicyclo[3.2.1]octan-8-yl)(5-(4-methylpiperazin-1-yl)-4H-1,2,4-triazol-3-yl)methanone]
IC50 ([1]; Homo sapiens, PC-3, PC3 cells): 1000 to 10000 nM
IC50 ([2]; Homo sapiens, PC-3, PC3 cells): 1000 to 10000 nM

Cn1ccc(-c2ccc(-c3cnn4c(N)c(C5CC5)c([C@@H]5C[C@H]6CC[C@@H](C5)N6C(=O)CO)nc34)cn2)n1 [Compound 4.18, 1-((1R,3s,5S)-3-(7-amino-6-cyclopropyl-3-(6-(1-methyl-1H-pyrazol-3-yl)pyridin-3-yl)pyrazolo[1,5-a]pyrimidin-5-yl)-8-azabicyclo[3.2.1]octan-8-yl)-2-hydroxyethanone]
IC50 [1, 3]: 1 to 100 nM
IC50 [2, 3]: 1 to 100 nM

CC(=O)c1c([C@@H]2C[C@H]3CC[C@@H](C2)N3C(=O)c2nnc[nH]2)nc2c(-c3ccc(-c4ccc(F)cc4)nc3)cnn2c1N [Compound 1.1.163, 1-(5-((1R,3s,5S)-8-(4H-1,2,4-triazole-3-carbonyl)-8-azabicyclo[3.2.1]octan-3-yl)-7-amino-3-(6-(4-fluorophenyl)pyridin-3-yl)pyrazolo[1,5-a]pyrimidin-6-yl)ethanone]
IC50 [1, 3]: 1 to 100 nM
IC50 [2, 3]: 100 to 1000 nM

CS(=O)(=O)c1c([C@H]2CC3CC[C@H](C2)N3C(=O)c2cn[nH]n2)nc2c(-c3ccc(-c4ccccc4F)nc3)cnn2c1N [Compound 3.170, ((1R,3s,5S)-3-(7-amino-3-(6-(2-fluorophenyl)pyridin-3-yl)-6-(methylsulfonyl)pyrazolo[1,5-a]pyrimidin-5-yl)-8-azabicyclo[3.2.1]octan-8-yl)(2H-1,2,3-triazol-4-yl)methanone]
IC50 [1, 5]: 100 to 1000 nM
IC50 [2, 5]: 100 to 1000 nM

CC(=O)c1c(C2CC3COCC(C2)N3C(=O)CO)nc2c(-c3ccc(-c4ccccc4)nc3)cnn2c1N (stereo not shown) [Compound 8.28, 1-(7-(6-acetyl-7-amino-3-(6-phenylpyridin-3-yl)pyrazolo[1,5-a]pyrimidin-5-yl)-3-oxa-9-azabicyclo[3.3.1]nonan-9-yl)-2-hydroxyethanone]
IC50 ([1]; Homo sapiens, PC-3, PC3 cells): 100 to 1000 nM
IC50 ([2]; Homo sapiens, PC-3, PC3 cells): 100 to 1000 nM

Cc1nc(N)ncc1C(=O)N1[C@@H]2CC[C@H]1C[C@H](c1nc3c(-c4ccc(-c5ccccc5)nc4)cnn3c(N)c1S(C)(=O)=O)C2 [Compound 3.137, (2-amino-4-methylpyrimidin-5-yl)((1R,3a,5S)-3-(7-amino-6-(methylsulfonyl)-3-(6-phenylpyridin-3-yl)pyrazolo[1,5-a]pyrimidin-5-yl)-8-azabicyclo[3.2.1]octan-8-yl)methanone]
IC50 [1, 5]: 1000 to 10000 nM
IC50 [2, 5]: 1000 to 10000 nM

CS(=O)(=O)c1c([C@@H]2C[C@H]3CC[C@@H](C2)N3C(=O)c2nnc[nH]2)nc2c(-c3cccnc3)cnn2c1N [Compound 3.69, ((1R,3s,5S)-3-(7-amino-6-(methylsulfonyl)-3-(pyridin-3-yl)pyrazolo[1,5-a]pyrimidin-5-yl)-8-azabicyclo[3.2.1]octan-8-yl)(4H-1,2,4-triazol-3-yl)methanone]
IC50 ([1]; Table 3-1, PC3 cells): 100 to 1000 nM
IC50 ([2]; Table 3-1, PC3 cells): 100 to 1000 nM

CC(=O)c1c([C@@H]2C[C@H]3CC[C@@H](C2)N3C(=O)CO)nc2c(-c3ccc(-c4ccn(CF)n4)nc3)cnn2c1N [Compound 1.1.87, 1-((1R,3s,5S)-3-(6-acetyl-7-amino-3-(6-(1-(fluoromethyl)-1H-pyrazol-3-yl)pyridin-3-yl)pyrazolo[1,5-a]pyrimidin-5-yl)-8-azabicyclo[3.2.1]octan-8-yl)-2-hydroxyethanone]
IC50 [1, 3]: 1 to 100 nM
IC50 [2, 3]: 1 to 100 nM

CC(=O)c1c([C@@H]2C[C@H]3CC[C@@H](C2)N3C(=O)c2nnc[nH]2)nc2c(-c3ccc(-c4nn(C)cc4F)nc3)cnn2c1N [Compound 1.1.106, 1-(5-((1R,3s,5S)-8-(4H-1,2,4-triazole-3-carbonyl)-8-azabicyclo[3.2.1]octan-3-yl)-7-amino-3-(6-(4-fluoro-1-methyl-1H-pyrazol-3-yl)pyridin-3-yl)pyrazolo[1,5-a]pyrimidin-6-yl)ethanone]
IC50 [1, 3]: 1 to 100 nM
IC50 [2, 3]: 1 to 100 nM

Source: patent publication US9227971B2, “Pyrazolo[1,5-a]pyrimidine compounds as mTOR inhibitors” (Merck Sharp & Dohme Corp., priority 2010, dated 2016)
